Results taken from patent EP0315434A2, “Pyridoxal hydrazone derivatives their production and use and pharmaceutical compositions containing the same” (YISSUM RESEARCH DEVELOPMENT COMPANY OF THE HEBREW …, priority 1987, dated 1989).
Where two headings read alike, the source gives them in different places.

Legend:
[1] = Fate of ⁵⁹Fe tracer incubated with chelator and injected into normal rats (radioiron distribution and excretion); type: in vivo; conditions: for Radioiron Distribution in % Feces / Radioiron Distribution in % Total excretion / Radioiron Distribution in % Urine / Radioiron Distribution in % Blood / Radioiron Distribution in % Liver / Radioiron Distribution in % Spleen: 10 mg chelator with ⁵⁹Fe, subcutaneous, normal rats; for Radioiron Distribution in % Feces / Radioiron Distribution in % Total excretion / Radioiron Distribution in % Urine: cumulative within 4 days; for Radioiron Distribution in % Blood / Radioiron Distribution in % Liver / Radioiron Distribution in % Spleen: within 4 days; for TOTAL EXCRETION OF RADIO-IRON IN RATS %: as in Table 1
Method: Table 1 describes the fate of ⁵⁹Fe tracer reincubated […] with 10 mg of some of the above iron chelators and then injected subcutaneously to groups of 4 normal rats. Numbers represent mean cumulative radioiron excretion within 4 days of injection. For comparison, spontaneous excretion of radioiron and the excretion of desferrioxamine (DF) bound radioiron are also given. […]
Spleen and kidney were counted as whole organs.
(§1) The excretion of radioiron following ⁵⁹Fe labelling was measured in animals confined to solitary metabolic cages with stainless steel grid bottoms, and stool and urine were collected separately.

[2] = Mobilization of iron from hepatic parenchymal stores in hypertransfused rats labelled with ⁵⁹Fe-ferritin; type: in vivo; conditions: for Ferritin-⁵⁹Fe distribution in % Blood / Ferritin-⁵⁹Fe distribution in % Feces / Ferritin-⁵⁹Fe distribution in % Liver / Ferritin-⁵⁹Fe distribution in % Residual / Ferritin-⁵⁹Fe distribution in % Spleen / Ferritin-⁵⁹Fe distribution in % Urine: single subcutaneous injection
Method: In each case, 40 mg of each compound was administered per animal in a single subcutaneous injection.
In vivo studies of chelating efficiency were performed in two models: (a) normal rats injected i.p. with 10 mg of either desferrioxamine B (DF), PIH of the prior art, PPH of Example 4 or PPHE from Example 5 labelled in vitro with ⁵⁹Fe; and (b) hypertransfused rats receiving twice 4 ml/100gm packed RBC intravenously 5 and 3 days prior to study (hematocrit 68%) and labelled with ⁵⁹Fe-ferritin injected i.v. 24h prior to iron chelating therapy as described previously. Drugs to be tested in the ⁵⁹Fe-ferritin model were given either by i.p. injection or by gastric tube at a dose of 40 mg per animal. Radioiron excretion and organ distribution were determined after 4 days
The radioactivity of spleen, weighed portions of the liver, and 1 ml samples of blood were determined in an automatic well type scintillation counter (Packard Autogamma Model 5360 Scintillation spectrometer). Spleen and kidney were counted as whole organs.
as §1, with “Whole body counts were performed in a small animal counter (Packard Model 446 Armac) scintillation detector. The” for “The”

[3] = system: chloroquine-resistant strain of P. falciparum (FCR-3); conditions: cultured 3 days
Method: Cultures of a chloroquine-resistant strain of P. falciparum (FCR-3), cultivated in human erythrocytes (a technique widely used at the Kuvin Centre, Hebrew University Hadassah Medical School), were suspended in solutions containing chelators and then cultured for 3 days. Growth of parasites was determined by either slide counts or by incorporation of ³H-hypoxanthine. The parasite growth was monitored by microscopic slide counts. […]

[4] = biological target: T1, Ribonucleoside Diphosphate Reductase (RdR) (Homo sapiens, UniProt P31350); assay: Inhibition of ribonucleotide diphosphate reductase; type: biochemical
T1 sequence (P31350 1-389): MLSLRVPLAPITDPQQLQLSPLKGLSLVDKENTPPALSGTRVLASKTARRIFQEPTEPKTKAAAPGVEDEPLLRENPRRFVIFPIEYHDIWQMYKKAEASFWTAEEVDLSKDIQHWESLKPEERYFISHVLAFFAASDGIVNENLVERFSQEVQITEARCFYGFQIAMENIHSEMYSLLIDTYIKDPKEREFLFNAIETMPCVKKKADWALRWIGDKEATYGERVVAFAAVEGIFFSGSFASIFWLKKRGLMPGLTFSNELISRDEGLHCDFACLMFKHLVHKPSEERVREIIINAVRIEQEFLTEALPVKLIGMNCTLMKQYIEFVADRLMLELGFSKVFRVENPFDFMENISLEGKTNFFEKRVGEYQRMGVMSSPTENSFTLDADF

[5] = Iron chelation in H₂O (spectrophotometric, apparent K), ferrous ions; type: physicochemical; conditions: for higher affinity for ferrous than for ferric ions: ferrous versus ferric
[6] = rats
[7] = hypertransfused rats, 40 mg per animal
[8] = 40 mg i.p., hypertransfused rats, 4 days
[9] = hypertransfused rats, 40 mg per animal, after 4 days, Desferral i.p., route not printed for Ex. 4 and Ex. 5, mean ± SD
[10] = oral administration of 40 mg, hypertransfused rats

Row | Compound | Radioiron Distribution in % Feces [1] [%] | Radioiron Distribution in % Total excretion [1] [%] | Radioiron Distribution in % Urine [1] [%] | Radioiron Distribution in % Blood [1] [%] | Radioiron Distribution in % Liver [1] [%] | Radioiron Distribution in % Spleen [1] [%] | TOTAL EXCRETION OF RADIO-IRON IN RATS % [1] [%] | Ferritin-⁵⁹Fe distribution in % Blood [2, 7] [%] | Ferritin-⁵⁹Fe distribution in % Feces [2, 7] [%] | Ferritin-⁵⁹Fe distribution in % Liver [2, 7] [%] | Ferritin-⁵⁹Fe distribution in % Residual [2, 7] [%] | Ferritin-⁵⁹Fe distribution in % Spleen [2, 7] [%] | Ferritin-⁵⁹Fe distribution in % Urine [2, 7] [%] | Inhibition of Ribonucleoside Diphosphate Reductase (RdR) % ([4]; dose 10 x 10⁻⁵ M) | higher affinity for ferrous than for ferric ions [5] [fold] | Inhibition of Ribonucleoside Diphosphate Reductase (RdR) % ([4]; dose 1 x 10⁻⁵ M) [%] | Inhibition of Ribonucleoside Diphosphate Reductase (RdR) % ([4]; dose 100 x 10⁻⁵ M) [%] | INHIBITION OF GROWTH OF DRUG-RESISTANT STRAIN OF P. falciparum % INHIBITION ([3]; molar concentration 2 x 10⁻⁵) [%] | also measured
1 | 1-[N-ethoxycarbonylmethyl pyridoxylidenium] 2-[2′-pyridyl] hydrazine bromide [Ex. 3] | 57.2±1.1 | 86.7±1.7 | 29.5±0.6 | 6.4±0.4 | 3.3±0.4 | 0.16±0.04 | 86.7± 1.7 | 3.8±0.2 | 57.6±2.9 | 36.5±1.2 | 0 | 0.4±0.1 | 1.7±0.1 | none | – | – | – | – | efficiency as compared to the parenteral administration of the same drug ([2]; oral 40 mg versus parenteral): 31%; effectiveness relative to DF on a weight per weight basis ([2]; rat, in vivo): 3 times; INHIBITION OF GROWTH OF DRUG-RESISTANT STRAIN OF P. falciparum % INHIBITION ([3]; molar concentration 2 x 10⁻⁶): 90.9%
2 | Cc1ncc(CO)c(C=NNc2ncccn2)c1O [Ex. 4] | – | – | – | – | – | – | – | – | – | – | – | – | – | 40% | ~30 | 30 | 78 | – | –
3 | Cc1ncc(CO)c(C=NNC(=O)c2cc[n+](C)cc2)c1O.[I-] [Ex. A, 1-[pyridoxylidene]-2-[N-methylisonicotinoylium] hydrazine iodide, reference compound] | 22.7±1.1 | 26.4±1.3 | 3.7±0.2 | 33.3±2.1 | 12.8±0.2 | 0.56±0.02 | 26.4± 1.3 | – | – | – | – | – | – | – | – | – | – | 16.6 | –
4 | 1-[N-methylpyridoxylidenium]-2-[methyl pyridiniumn] hydrazine hydroxido iodide [Ex. 2] | 27.0±2.2 | 66.0±5.3 | 39.0±3.1 | 13.3±2.3 | 6.8±0.4 | 0.51±0.02 | – | 3.0±0.1 | 58.9±3.0 | 35.5±1.7 | 0 | 0.4±0.1 | 2.2±0.1 | – | – | – | – | – | –
5 | Cc1ncc(CO)c(C=NNc2cnccn2)c1O [Ex. 6, 1-[2′-pyrazyl]-2-[pyridoxylidene] hydrazine] | – | – | – | – | – | – | – | – | – | – | – | – | – | 81% | – | 64 | 83 | – | –
6 | CCOC(=O)[n+]1cc(CO)c(C=NNc2ncccn2)c(O)c1C [Ex. 5, 1-(N-ethoxycarbonylpyridoxylidenium]-2-[2′-pyrimidyl] hydrazine] | 67.3±2.4 | 96.2±3.4 | 28.9±1.0 | 4.2±0.2 | 2.9±0.2 | 0.06±0.03 | 96.2± 3.4 | – | – | – | – | – | – | – | ~30 | – | – | 90.3 | excretion of the radioiron label in the stool [2, 8]: 72%; reduction in hepatocellular (hepatic) radioactivity [2, 8]: 69%; ORGAN DISTRIBUTION AND EXCRETION OF ⁵⁹Fe-FERRITIN (%) BLOOD [2, 9]: 3.1±0.6%; ORGAN DISTRIBUTION AND EXCRETION OF ⁵⁹Fe-FERRITIN (%) LIVER [2, 9]: 63.8± 8.7%; ORGAN DISTRIBUTION AND EXCRETION OF ⁵⁹Fe-FERRITIN (%) STOOL [2, 9]: 27.6±1.3%; ORGAN DISTRIBUTION AND EXCRETION OF ⁵⁹Fe-FERRITIN (%) TOTAL EXCRETION [2, 9]: 28.1±1.3%; ORGAN DISTRIBUTION AND EXCRETION OF ⁵⁹Fe-FERRITIN (%) URINE [2, 9]: 0.5±0%; greater oral chelating efficiency than an identical dose of parenteral DF ([2]; oral 40 mg versus parenteral DF 40 mg): roughly 20%; excretion of radioiron [2, 10]: 28%; reduction in hepatic ⁵⁹Fe [2, 10]: 27%; effectiveness in the chelation test relative to prior art PIH ([5]; compared with PIH): about sixty times more effective; tolerance ([6]; 100 mg/kg/d by oral or parenteral administration): well tolerated; biochemical tests of hepatic and renal function, complete blood counts, hepatic and renal histology ([6]; after 3 months of continuous treatment): no indications of toxicity
